Patent US9125940B2, “Compositions and methods for treating macular edema” (priority 2011, dated 2015)

Test system: macular edema
Test: Case report Example 1: patient with macular edema after central vein occlusion in the left eye, OCT, vision acuity and eye pressure
Type: in vivo, human
Source text: A patient experienced central vein occlusion in their left eye and subsequently suffered macular edema in 2005. Weak drusens were found in both of their eyes. […] The patient received corsteroid injection in the left eye. The macular edema went away for four months. However, the left eye pressure went up to 35-40 mmHg. Eye drops for lowering eye pressure were used to treat the high eye pressure. Within half a year, the patient developed cataract in their left eye and shortly thereafter advanced to a point that their left eye lost most vision and the eye specialist recommended surgery to remove the cataract. At the time of the surgery, it was discovered that the patient's macular edema had come back and it was rather severe. Avastin injection was then employed to treat macular edema. The edema went away for a month but still came back 2-3 months afterwards. At this point, the patient was notified that regular injection would be required for the rest of their life. As shown in the images from Optical Coherence Tomography (OCT) (FIG. 1), macular edema returned three months after the Avastin injection. Such was a repeated phenomenon since 2005, for more than three years. Macular edema re-occurred typically 3 months following Avastin injection. […].

[1] = June 2008, before treatment with the composition, FIG. 1

Substance: Avastin: Avastin injection employed to treat macular edema (anti-VEGF)
- ocular pressure three months after injection [1]: 35 mmHg
- vision acuity three months after injection [1]: 20/40
- time to re-occurrence of macular edema following injection (left eye, intravitreal injection, repeated for more than three years): ~3 months
